Measurements: patent US20240025900A1, “TETRACYCLIC COMPOUNDS AS DGK INHIBITORS” (Incyte Corporation, priority 2022, published 2024)

Key:
DGKζ = DGKζ (Homo sapiens (Human), UniProt Q13574); experiment: In vitro DGKζ inhibition assay (ADP-Glo); type: biochemical; conditions: His-tagged human recombinant DGKζ 0.4 nM, 30 μM ATP, 20 μM DLG
Procedure: (§1) The DGKα and DGKζ biochemical reactions were performed using His-tagged human recombinant enzymes (Signal Chem, DGKα, #D21-10BH; DGKζ, #D30-10H)) and DLG (Dilauroyl-sn-glycerol) lipid substrate (Signal Chem, #D430-59). ADP-Glo assay was performed using ADP-Glo™ kinase Assay kit (Promega, #V9104). The reactions were carried out in assay buffer containing 40 mM Tris, pH 7.5, 0.1% CHAPS, 0.1% Prionex, 40 mM NaCl, 5 mM MgCl2, 1 mM CaCl2, and 1 mM DTT. DGKα reactions contained 0.1 nM DGKα, 50 μM ATP, and 20 μM DLG. And DGKζ reactions contained 0.4 nM DGKζ, 30 μM ATP, and 20 μM DLG.
(§2) For compound inhibition studies, 40 nL test compound in DMSO was added to wells of white polystyrene plates in 384-well (Greiner, #784075) or 1536-well format (Greiner, #782075). Compounds were added with top concentration of 2 mM with 11 point, 3-fold dilution series. Enzyme solution (contains 2×DGK enzyme concentration in 1× assay buffer) was added to the plate in 2 μL/well volume, followed by 2 μL/well of substrate solution (contains 2×concentration of ATP and DLG substrate in 1× assay buffer). Plates were then centrifuged for 1 min at 1200 RPM and sealed or lidded. For 4 μL reaction volume, test compounds were therefore diluted 100× to final top concentration of 20 μM. After 90 minute incubation, reactions were quenched by addition of 2 μL/well Promega ADP-Glo Reagent, followed by centrifugation and lidding. After 60 min incubation, 2 μL/well Promega Kinase Detection Reagent was added, plates centrifuged, and incubated for 30 min. Plates were then read using Luminescence method on BMG PHERAstar FSX plate reader. Percent inhibition was calculated and IC50s were determined using 4-parameter fit in Genedata Screener. Labcyte Echo acoustic dispenser was used for compound addition, and Formulatrix Tempest liquid handler was used for all reagent dispenses.

DGKα = DGKα (Homo sapiens (Human), UniProt P23743); experiment: In vitro DGKα inhibition assay (ADP-Glo); type: biochemical; conditions: His-tagged human recombinant DGKα 0.1 nM, 50 μM ATP, 20 μM DLG
Sequence of DGKα (P23743 whole entry): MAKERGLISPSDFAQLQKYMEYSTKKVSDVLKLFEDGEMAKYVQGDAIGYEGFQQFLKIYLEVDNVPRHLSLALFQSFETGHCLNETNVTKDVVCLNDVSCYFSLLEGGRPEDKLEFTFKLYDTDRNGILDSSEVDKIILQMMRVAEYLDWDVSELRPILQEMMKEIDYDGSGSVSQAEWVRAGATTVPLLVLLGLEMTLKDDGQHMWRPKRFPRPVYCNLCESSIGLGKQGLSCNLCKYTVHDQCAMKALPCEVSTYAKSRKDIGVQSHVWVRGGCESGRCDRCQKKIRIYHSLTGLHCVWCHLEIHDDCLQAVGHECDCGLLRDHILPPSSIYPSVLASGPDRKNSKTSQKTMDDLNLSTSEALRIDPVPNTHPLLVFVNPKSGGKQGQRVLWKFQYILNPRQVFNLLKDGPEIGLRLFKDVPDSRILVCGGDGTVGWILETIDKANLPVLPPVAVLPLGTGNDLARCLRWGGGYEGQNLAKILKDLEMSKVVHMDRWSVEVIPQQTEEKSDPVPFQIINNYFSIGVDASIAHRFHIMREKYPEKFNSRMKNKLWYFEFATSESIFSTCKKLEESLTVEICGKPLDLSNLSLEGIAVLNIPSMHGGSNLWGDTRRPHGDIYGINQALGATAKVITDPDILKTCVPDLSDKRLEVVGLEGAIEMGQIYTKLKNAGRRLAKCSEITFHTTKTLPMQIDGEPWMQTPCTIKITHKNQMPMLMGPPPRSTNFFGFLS
Procedure: as §1, §2

Sequence of DGKζ (Q13574 whole entry): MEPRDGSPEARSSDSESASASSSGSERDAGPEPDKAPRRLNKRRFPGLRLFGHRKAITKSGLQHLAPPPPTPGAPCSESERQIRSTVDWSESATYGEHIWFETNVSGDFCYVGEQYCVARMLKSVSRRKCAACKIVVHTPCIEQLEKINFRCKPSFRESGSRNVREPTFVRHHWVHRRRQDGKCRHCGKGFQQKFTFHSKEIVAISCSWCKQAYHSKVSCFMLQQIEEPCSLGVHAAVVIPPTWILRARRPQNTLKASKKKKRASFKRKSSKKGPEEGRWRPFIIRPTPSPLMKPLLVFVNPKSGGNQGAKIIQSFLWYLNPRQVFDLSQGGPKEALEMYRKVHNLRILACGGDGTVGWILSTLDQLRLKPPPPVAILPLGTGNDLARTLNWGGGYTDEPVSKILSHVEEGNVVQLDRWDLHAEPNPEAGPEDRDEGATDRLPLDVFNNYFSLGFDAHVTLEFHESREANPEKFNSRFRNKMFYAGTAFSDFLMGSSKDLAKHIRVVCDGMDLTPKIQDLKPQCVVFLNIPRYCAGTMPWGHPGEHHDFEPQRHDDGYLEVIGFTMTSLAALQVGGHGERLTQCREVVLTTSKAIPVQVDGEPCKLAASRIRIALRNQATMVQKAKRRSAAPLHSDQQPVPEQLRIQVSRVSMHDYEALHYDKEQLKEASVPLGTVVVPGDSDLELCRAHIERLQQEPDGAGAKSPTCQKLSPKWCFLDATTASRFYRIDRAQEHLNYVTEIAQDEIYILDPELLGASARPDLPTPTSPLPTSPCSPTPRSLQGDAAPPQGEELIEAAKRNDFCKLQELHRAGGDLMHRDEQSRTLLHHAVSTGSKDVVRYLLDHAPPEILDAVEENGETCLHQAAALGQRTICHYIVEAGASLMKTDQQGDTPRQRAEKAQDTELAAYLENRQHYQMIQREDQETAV

IC50 (DGKζ) [nM]	IC50 (DGKα) [nM]	SMILES
200 to 2000	≤ 40	CN1C(=O)CC2CN(C(c3ccc(F)cc3)c3ccc(F)cc3)CCN2c2c1c(=O)n(C)c1ccc(C#N)nc21 (single isomer, unassigned) [Example 1, 11-(Bis(4-fluorophenyl)methyl)-5,7-dimethyl-6,8-dioxo-5,6,7,8,9,9a,10,11,12,13-decahydropyrazino[1′,2′: 4,5][1,4]diazepino[2,3-c][1,5]naphthyridine-2-carbonitrile]
≤ 40	40 to 200	CN1C(=O)CC2CN(C(c3ccc(F)cc3)c3ccc(F)cc3)CCN2c2c1c(=O)n(C)c1ccc(C#N)nc21 (single isomer, unassigned) [Example 2, 11-(Bis(4-fluorophenyl)methyl)-5,7-dimethyl-6,8-dioxo-5,6,7,8,9,9a,10,11,12,13-decahydropyrazino[1′,2′: 4,5][1,4]diazepino[2,3-c][1,5]naphthyridine-2-carbonitrile]
≤ 40	≤ 40	Cn1c(=O)c2c(c3nc(C#N)ccc31)N1CCN(C(c3ccc(F)cc3)c3ccc(F)cc3)C[C@@H]1COC2=O [Example 3, (R)-11-(Bis(4-fluorophenyl)methyl)-5-methyl-6,7-dioxo-5,7,9,9a,10,11,12,13-octahydro-6H-pyrazino[2′,1′:3,4][1,4]oxazepino[6,5-c][1,5]naphthyridine-2-carbonitrile]
≤ 40	≤ 40	Cn1c(=O)c2c(c3nc(CC#N)ccc31)N1CCN(C(c3ccc(F)cc3)c3ccc(F)cc3)C[C@@H]1COC2=O [Example 4, (R)-2-(11-(Bis(4-fluorophenyl)methyl)-5-methyl-6,7-dioxo-5,7,9,9a,10,11,12,13-octahydro-6H-pyrazino[2′,1′:3,4][1,4]oxazepino[6,5-c][1,5]naphthyridin-2-yl)acetonitrile]
40 to 200	40 to 200	Cn1c(=O)c2c(c3nc(CC#N)cnc31)N1CCN(C(c3ccc(F)cc3)c3ccc(F)cc3)C[C@@H]1COC2=O [Example 5, (R)-2-(11-(Bis(4-fluorophenyl)methyl)-5-methyl-6,7-dioxo-5,7,9,9a,10,11,12,13-octahydro-6H-pyrazino[2,1-c]pyrazino[2′,3′: 5,6]pyrido[4,3-e][1,4]oxazepin-2-yl)acetonitrile]
≤ 40	≤ 40	Cn1c(=O)c2c(c3nc(C#N)ccc31)N1CCN(C(c3ccc(F)cc3)c3ccc(F)cc3)C[C@H]1COC2=O [Example 6, (S)-11-(Bis(4-fluorophenyl)methyl)-5-methyl-6,7-dioxo-5,7,9,9a,10,11,12,13-octahydro-6H-pyrazino[2′,1′:3,4][1,4]oxazepino[6,5-c][1,5]naphthyridine-2-carbonitrile]
200 to 2000	≤ 40	C[C@@H]1CN2c3c(c(=O)n(C)c4ccc(C#N)nc34)C(=O)OC[C@H]2CN1C(c1ccc(F)cc1)c1ccc(F)cc1 [Example 7, (9aR,12R)-11-(Bis(4-fluorophenyl)methyl)-5,12-dimethyl-6,7-dioxo-5,7,9,9a,10,11,12,13-octahydro-6H-pyrazino[2′,1′:3,4][1,4]oxazepino[6,5-c][1,5]naphthyridine-2-carbonitrile]
40 to 200	–	Cn1c(=O)c2c(c3cc(CC#N)ccc31)N1CCN(C(c3ccc(F)cc3)c3ccc(F)cc3)C[C@@H]1COC2=O [Example 8, (R)-2-(3-(Bis(4-fluorophenyl)methyl)-9-methyl-7,8-dioxo-1,2,3,4,4a,5,8,9-octahydro-7H-pyrazino[2′,1′:3,4][1,4]oxazepino[6,5-c]quinolin-12-yl)acetonitrile]
> 2000	≤ 40	Cn1c(=O)c2c(c3ncc(C#N)cc31)N1CCN(C(c3ccc(F)cc3)c3ccc(F)cc3)C[C@@H]1COC2=O [Example 9, (R)-11-(Bis(4-fluorophenyl)methyl)-5-methyl-6,7-dioxo-5,7,9,9a,10,11,12,13-octahydro-6H-pyrazino[2′,1′:3,4][1,4]oxazepino[6,5-c][1,5]naphthyridine-3-carbonitrile]
> 2000	–	Cn1c(=O)c2c(c3ncc(CC#N)cc31)N1CCN(C(c3ccc(F)cc3)c3ccc(F)cc3)C[C@@H]1COC2=O [Example 10, (R)-2-(11-(Bis(4-fluorophenyl)methyl)-5-methyl-6,7-dioxo-5,7,9,9a,10,11,12,13-octahydro-6H-pyrazino[2′,1′:3,4][1,4]oxazepino[6,5-c][1,5]naphthyridin-3-yl)acetonitrile]
